Calls of active or inactive are those of the source. No cut-off for these calls is given here.

What is called IC50 is the concentration needed to halve the response being measured.

In data set [1] the test system is SK-HEP1. The experiment in a line: Cytotoxicity against human SK-HEP1 cells combined with irradiation (3 Gy) incubated for 72 hrs by CCK8 assay. The class given is functional, cell-based. Conditions: SK-HEP1, light or radiation study. On the technique in general: Formazan colour is commonly taken as a measure of viable cells.
In data set [2] the test system is SK-HEP1. The experiment in a line: Effect of TFRC mRNA expression in human SK-HEP1 cells at 2.5 uM incubated for 36 hrs by RNA sequencing analysis. The class given is functional, cell-based.
The target of data set [3] is T1, Protein cereblon/NAD-dependent protein deacylase sirtuin-6 (Homo sapiens, UniProt Q8N6T7+Q96SW2). Kind of data set: PROTAC activity at CRBN/SIRT6 in human SK-HEP1 cells assessed as induction of SIRT6 degradation at 200 nM incubated for 36 hrs by In-Cell ELISA relative to control. The class given is cell-based. In general terms: ELISA stands for enzyme-linked immunosorbent assay.

Data set [4] addresses T1, Protein cereblon/NAD-dependent protein deacylase sirtuin-6. Kind of data set: PROTAC activity at CRBN/SIRT6 in human SK-HEP1 cells assessed as disruption of CHD4 recruitment to DSB sites at 2.5 uM incubated for 36 hrs followed by irradiation (10 Gy) treatment for 4 hrs by Western blot analysis. The class given is cell-based. Particulars: time 40.0 hrs.
For data set [5], the system named is SK-HEP1. The experiment in a line: Effect of FN1 mRNA expression in human SK-HEP1 cells at 2.5 uM incubated for 36 hrs by RNA sequencing analysis. The class given is functional, cell-based.
Data set [6] is described as follows: Toxicity in BALB/c nude mouse xenografted with human SK-HEP1 cells assessed as pathological damage in kidney at 10 mg/kg treated for 28 to 30 days by H and E staining based analysis. The data set is classed as organism-based. Particulars: in vivo, time 28-30 day. In general terms: Xenograft models place foreign cells or tissue in a host animal.
Data set [7] concerns the target T1, Protein cereblon/NAD-dependent protein deacylase sirtuin-6. Kind of data set: PROTAC activity at CRBN/SIRT6 in MG132-treated human SK-HEP1 cells assessed as induction of SIRT6 degradation at 2.5 uM treated for 36 hrs by Western blot analysis. The data set is classed as cell-based.
Data set [8] relates to SK-HEP1. The experiment in a line: Effect on SIRT1 expression in human SK-HEP1 cells at 0.002 to 1 uM incubated for 36 hrs by Western blot analysis. The data set is classed as functional, cell-based. Particulars: dose 0.002-1 µM.
A short description of data set [9]: Toxicity in BALB/c nude mouse xenografted with human SK-HEP1 cells assessed as histopathological abnormalities in lungs at 10 mg/kg treated for 28 to 30 days in presence of sorafenib by H and E staining based analysis. Conditions: in vivo, time 28-30 day. The data set is classed as organism-based.
Data set [10] has as its target T1, Protein cereblon/NAD-dependent protein deacylase sirtuin-6. The experiment in a line: PROTAC activity at CRBN/SIRT6 in human SK-HEP1 cells assessed as induction of SIRT6 degradation at 2 to 3 uM incubated for 36 hrs by Western blot analysis. The data set is classed as cell-based. Particulars: dose 2-3 µM.
For data set [11], the system named is SK-HEP1. The experiment in a line: Downregulation of NAIF1 expression in human SK-HEP1 cells at 2.5 uM incubated for 36 hrs in presence of MG132. The data set is classed as functional, cell-based.
The test system of data set [12] is SK-HEP1. The experiment in a line: Effect of genes related to cell apoptosis in human SK-HEP1 cells at 2.5 uM incubated for 36 hrs by GSEA analysis. The data set is classed as functional, cell-based.
For data set [13], the system named is SK-HEP1. The experiment in a line: Effect of CSTB mRNA expression in human SK-HEP1 cells at 2.5 uM incubated for 36 hrs by RNA sequencing analysis. The data set is classed as functional, cell-based.
Data set [14] is described as follows: Toxicity in BALB/c nude mouse xenografted with human SK-HEP1 cells assessed as pathological damage in lungs at 10 mg/kg treated for 28 to 30 days in presence of sorafenib by H and E staining based analysis. The class given is organism-based. Conditions: in vivo, time 28-30 day.

T1 sequence (Q8N6T7 2-355 limits assumed): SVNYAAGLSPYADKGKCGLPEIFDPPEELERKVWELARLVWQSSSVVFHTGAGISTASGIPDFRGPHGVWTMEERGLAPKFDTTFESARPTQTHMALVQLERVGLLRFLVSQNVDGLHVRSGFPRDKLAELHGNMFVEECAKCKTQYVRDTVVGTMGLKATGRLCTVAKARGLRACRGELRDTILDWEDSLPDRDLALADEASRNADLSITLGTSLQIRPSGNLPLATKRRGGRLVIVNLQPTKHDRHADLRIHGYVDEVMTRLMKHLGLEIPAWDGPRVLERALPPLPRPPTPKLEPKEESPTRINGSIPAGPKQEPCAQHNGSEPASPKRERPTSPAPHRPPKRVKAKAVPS
T1 sequence (Q96SW2 whole entry partner): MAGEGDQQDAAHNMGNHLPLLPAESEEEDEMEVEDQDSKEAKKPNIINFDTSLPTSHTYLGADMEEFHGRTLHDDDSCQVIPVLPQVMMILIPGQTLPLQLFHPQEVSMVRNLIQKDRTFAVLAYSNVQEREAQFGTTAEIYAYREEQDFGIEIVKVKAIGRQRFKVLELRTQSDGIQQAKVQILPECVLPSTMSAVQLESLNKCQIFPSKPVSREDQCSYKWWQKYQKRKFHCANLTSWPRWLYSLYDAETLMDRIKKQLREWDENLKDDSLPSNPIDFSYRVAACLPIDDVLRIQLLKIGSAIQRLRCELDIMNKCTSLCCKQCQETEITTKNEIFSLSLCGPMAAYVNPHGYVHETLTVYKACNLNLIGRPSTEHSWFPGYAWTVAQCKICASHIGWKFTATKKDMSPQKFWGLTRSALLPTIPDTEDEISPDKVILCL

As to `Nc1cc(N2CCN(CC3CCN(c4cc5c(cc4F)C(=O)N(C4CCC(=O)NC4=O)C5=O)CC3)CC2)ccc1[N+](=O)[O-]` (centres undefined), the IC50 in the data set on SK-HEP1 [1] is roughly 450 nM. Also, the outcome (in the data set on SK-HEP1 [2]; in [4]; with SK-HEP1 [5]; in data set [10]; in the data set on SK-HEP1 [12]; with SK-HEP1 [13]) was Active. In addition, the Activity was 67.7% in data set [3]; “Non-toxic” in data set [6]; “Not active; Confirms That Proteosome Is Necessary For Sirt6 Degradation” in data set [7]; “No effect” with SK-HEP1 [8]; “Non-toxic” in data set [9]; “Non-toxic” in [14]. Further, the result with SK-HEP1 [11] was inactive.

Values taken from ChEMBL document CHEMBL6120963, “Discovery of Novel PROTAC SIRT6 Degraders with Potent Efficacy against Hepatocellular Carcinoma” (J Med Chem, 2024).
